Results reported in patent US7820623B2 (priority 2006, dated 2010).
Where two headings read alike, the source gives them in different places. Bridge positions count the residues as written; N and C are the ends. Square brackets hold non-standard residues; d marks the D form. Peptide text beside a SMILES is read from it. 1Nal = N[C@@H](Cc1cccc2ccccc12)C(=O)O

Key:
[1] = system: thapsigargin-induced IFN-g production in human whole blood; type: cell-based
[2] = system: thapsigargin-induced IL-2 production in human whole blood
[3] = read-out: Analogue Activity (IC50) WB/IFNg
[4] = read-out: Analogue Activity (IC50) WB/IL-2

Row | Compound | IC50 [1, 3] | IC50 [2, 4] | further results
1 | CC[C@H](C)[C@H](NC(=O)[C@@H](NC(=O)CN)C(C)C)C(=O)N[C@H](C(=O)N[C@@H](CC(N)=O)C(=O)N[C@H](C(=O)N[C@@H](CCCCN)C(=O)N[C@H]1CSSC[C@@H]2NC(=O)[C@H](CCCCN)NC(=O)CNC(=O)[C@H](Cc3ccccc3)NC(=O)[C@H](CCCNC(=N)N)NC(=O)[C@H](CCSC)NC(=O)CNC(=O)[C@H](C)NC(=O)[C@H](CCCCN)NC(=O)[C@H](CCCCN)NC(=O)[C@@H]3CSSC[C@@H](C(=O)N[C@H](C(=O)N4CCC[C@H]4C(=O)N[C@@H](CCCCN)C(=O)O)[C@@H](C)O)NC(=O)[C@H](Cc4c[nH]cn4)NC(=O)[C@H](CSSC[C@H](NC(=O)[C@H](CCC(N)=O)NC(=O)[C@H](CCCNC(=N)N)NC(=O)[C@H](CO)NC(=O)[C@H](CCC(=O)O)NC(=O)[C@H](CCCCN)NC1=O)C(=O)N[C@@H](CC(C)C)C(=O)N[C@@H](CCC(=O)O)C(=O)N1CCC[C@H]1C(=O)N3)NC(=O)[C@H](CCCCN)NC(=O)CNC(=O)[C@H](CC(N)=O)NC(=O)[C@H](CCSC)NC2=O)C(C)C)[C@@H](C)CC [I10E] (H-GVIINVKCKESRQCLEPCKKAGMRFGKCMNGKCHCTPK-OH; disulfide 8-28, 14-33, 18-35) | 2.74 nM | 2.57 nM | –
2 | CC[C@H](C)[C@@H]1NC(=O)[C@H](CCCCN)NC(=O)[C@@H](NC(=O)[C@H](CCCCN)NC(=O)[C@@H](NC(=O)[C@H](CC(N)=O)NC(=O)[C@@H](NC(=O)[C@@H](NC(=O)[C@@H](NC(=O)CN)C(C)C)[C@@H](C)CC)[C@@H](C)CC)C(C)C)CSSC[C@@H]2NC(=O)[C@H](CCCCN)NC(=O)CNC(=O)[C@H](Cc3ccccc3)NC(=O)[C@H](CCCNC(=N)N)NC(=O)[C@H](CCSC)NC(=O)CNC(=O)[C@H](C)NC(=O)[C@H](CCCCN)NC(=O)[C@H](CCCCN)NC(=O)[C@@H]3CSSC[C@@H](C(=O)N[C@H](C(=O)N4CCC[C@H]4C(=O)N[C@@H](CCCCN)C(=O)O)[C@@H](C)O)NC(=O)[C@H](Cc4c[nH]cn4)NC(=O)[C@H](CSSC[C@H](NC(=O)[C@H](CCC(N)=O)NC(=O)[C@H](CCCNC(=N)N)NC(=O)[C@H](CO)NC1=O)C(=O)N[C@@H](CC(C)C)C(=O)N[C@@H](Cc1cccc4ccccc14)C(=O)N1CCC[C@H]1C(=O)N3)NC(=O)[C@H](CCCCN)NC(=O)CNC(=O)[C@H](CC(N)=O)NC(=O)[C@H](CCSC)NC2=O [E16Nal] (H-GVIINVKCKISRQCL[1Nal]PCKKAGMRFGKCMNGKCHCTPK-OH; disulfide 8-28, 14-33, 18-35) | 1.51 nM | 1.02 nM | –
3 | CC[C@H](C)[C@@H]1NC(=O)[C@H](CCCCN)NC(=O)[C@@H](NC(=O)[C@H](CCCCN)NC(=O)[C@H](Cc2cccc3ccccc23)NC(=O)[C@H](CC(N)=O)NC(=O)[C@@H](NC(=O)[C@@H](NC(=O)[C@@H](NC(=O)CN)C(C)C)[C@@H](C)CC)[C@@H](C)CC)CSSC[C@@H]2NC(=O)[C@H](CCCCN)NC(=O)CNC(=O)[C@H](Cc3ccccc3)NC(=O)[C@H](CCCNC(=N)N)NC(=O)[C@H](CCSC)NC(=O)CNC(=O)[C@H](C)NC(=O)[C@H](CCCCN)NC(=O)[C@H](CCCCN)NC(=O)[C@@H]3CSSC[C@@H](C(=O)N[C@H](C(=O)N4CCC[C@H]4C(=O)N[C@@H](CCCCN)C(=O)O)[C@@H](C)O)NC(=O)[C@H](Cc4c[nH]cn4)NC(=O)[C@H](CSSC[C@H](NC(=O)[C@H](CCC(N)=O)NC(=O)[C@H](CCCNC(=N)N)NC(=O)[C@H](CO)NC1=O)C(=O)N[C@@H](CC(C)C)C(=O)N[C@@H](CCC(=O)O)C(=O)N1CCC[C@H]1C(=O)N3)NC(=O)[C@H](CCCCN)NC(=O)CNC(=O)[C@H](CC(N)=O)NC(=O)[C@H](CCSC)NC2=O [V6Nal] (H-GVIIN[1Nal]KCKISRQCLEPCKKAGMRFGKCMNGKCHCTPK-OH; disulfide 8-28, 14-33, 18-35) | 2.46 nM | 1.78 nM | –
4 | GGGGS-Osk1 (GGGGSGVIINVKCKISRQCLEPCKKAGMRFGKCMNGKCHCTPK) | – | – | IC50 ([1]; read-out: WB/IFNg (IC50)): 2.2 nM; IC50 ([2]; read-out: WB/IL-2 (IC50)): 1.36 nM
5 | CC[C@H](C)[C@@H]1NC(=O)[C@H](CCCCN)NC(=O)[C@@H](NC(=O)[C@H](CCCCN)NC(=O)[C@@H](NC(=O)[C@H](CC(N)=O)NC(=O)[C@@H](NC(=O)[C@@H](NC(=O)[C@@H](NC(=O)CN)C(C)C)[C@@H](C)CC)[C@@H](C)CC)C(C)C)CSSC[C@@H]2NC(=O)[C@H](CCC(=O)O)NC(=O)CNC(=O)[C@H](Cc3ccccc3)NC(=O)[C@H](CCCNC(=N)N)NC(=O)[C@H](CCSC)NC(=O)CNC(=O)[C@H](C)NC(=O)[C@H](CCCCN)NC(=O)[C@H](CCCCN)NC(=O)[C@@H]3CSSC[C@@H](C(=O)N[C@H](C(=O)N4CCC[C@H]4C(=O)N[C@@H](CCCCN)C(=O)O)[C@@H](C)O)NC(=O)[C@H](Cc4c[nH]cn4)NC(=O)[C@H](CSSC[C@H](NC(=O)[C@H](CCC(N)=O)NC(=O)[C@H](CCCNC(=N)N)NC(=O)[C@H](CO)NC1=O)C(=O)N[C@@H](CC(C)C)C(=O)N[C@@H](CCC(=O)O)C(=O)N1CCC[C@H]1C(=O)N3)NC(=O)[C@H](CCCCN)NC(=O)CNC(=O)[C@H](CC(N)=O)NC(=O)[C@H](CCSC)NC2=O [K27E] (H-GVIINVKCKISRQCLEPCKKAGMRFGECMNGKCHCTPK-OH; disulfide 8-28, 14-33, 18-35) | 7.14 nM | 5.55 nM | –
6 | CC[C@H](C)[C@@H]1NC(=O)[C@H](CCCCN)NC(=O)[C@@H](NC(=O)[C@H](CCCCN)NC(=O)[C@@H](NC(=O)[C@H](CC(N)=O)NC(=O)[C@@H](NC(=O)[C@@H](NC(=O)[C@@H](NC(=O)CN)C(C)C)[C@@H](C)CC)[C@@H](C)CC)C(C)C)CSSC[C@@H]2NC(=O)[C@H](CCCCN)NC(=O)CNC(=O)[C@H](Cc3ccccc3)NC(=O)[C@H](CCCNC(=N)N)NC(=O)[C@H](C)NC(=O)CNC(=O)[C@H](C)NC(=O)[C@H](CCCCN)NC(=O)[C@H](CCCCN)NC(=O)[C@@H]3CSSC[C@@H](C(=O)N[C@H](C(=O)N4CCC[C@H]4C(=O)N[C@@H](CCCCN)C(=O)O)[C@@H](C)O)NC(=O)[C@H](Cc4c[nH]cn4)NC(=O)[C@H](CSSC[C@H](NC(=O)[C@H](CCC(N)=O)NC(=O)[C@H](CCCNC(=N)N)NC(=O)[C@H](CO)NC1=O)C(=O)N[C@@H](CC(C)C)C(=O)N[C@@H](CCC(=O)O)C(=O)N1CCC[C@H]1C(=O)N3)NC(=O)[C@H](CCCCN)NC(=O)CNC(=O)[C@H](CC(N)=O)NC(=O)[C@H](CCSC)NC2=O [M23A] (H-GVIINVKCKISRQCLEPCKKAGARFGKCMNGKCHCTPK-OH; disulfide 8-28, 14-33, 18-35) | 0.275 nM | 0.275 nM | –
7 | CC[C@H](C)[C@@H]1NC(=O)[C@H](CCCCN)NC(=O)[C@@H](NC(=O)[C@H](CCCCN)NC(=O)[C@@H](NC(=O)[C@H](CC(N)=O)NC(=O)[C@@H](NC(=O)[C@@H](NC(=O)[C@H](CCCNC(=N)N)NC(=O)CN)[C@@H](C)CC)[C@@H](C)CC)C(C)C)CSSC[C@@H]2NC(=O)[C@H](CCCCN)NC(=O)CNC(=O)[C@H](Cc3ccccc3)NC(=O)[C@H](CCCNC(=N)N)NC(=O)[C@H](CCSC)NC(=O)CNC(=O)[C@H](C)NC(=O)[C@H](CCCCN)NC(=O)[C@H](CCCCN)NC(=O)[C@@H]3CSSC[C@@H](C(=O)N[C@H](C(=O)N4CCC[C@H]4C(=O)N[C@@H](CCCCN)C(=O)O)[C@@H](C)O)NC(=O)[C@H](Cc4c[nH]cn4)NC(=O)[C@H](CSSC[C@H](NC(=O)[C@H](CCC(N)=O)NC(=O)[C@H](CCCNC(=N)N)NC(=O)[C@H](CO)NC1=O)C(=O)N[C@@H](CC(C)C)C(=O)N[C@@H](CCC(=O)O)C(=O)N1CCC[C@H]1C(=O)N3)NC(=O)[C@H](CCCCN)NC(=O)CNC(=O)[C@H](CC(N)=O)NC(=O)[C@H](CCSC)NC2=O [V2R] (H-GRIINVKCKISRQCLEPCKKAGMRFGKCMNGKCHCTPK-OH; disulfide 8-28, 14-33, 18-35) | 0.986 nM | 0.775 nM | –
8 | CC[C@H](C)[C@@H]1NC(=O)[C@H](CCCCN)NC(=O)[C@@H](NC(=O)[C@H](CCCCN)NC(=O)[C@@H](NC(=O)[C@H](CC(N)=O)NC(=O)[C@@H](NC(=O)[C@@H](NC(=O)[C@@H](NC(=O)CN)C(C)C)[C@@H](C)CC)[C@@H](C)CC)C(C)C)CSSC[C@@H]2NC(=O)[C@H](CCCCN)NC(=O)CNC(=O)[C@H](Cc3ccccc3)NC(=O)[C@H](CCCNC(=N)N)NC(=O)[C@H](CCSC)NC(=O)CNC(=O)[C@H](C)NC(=O)[C@H](CCCCN)NC(=O)[C@H](CCCCN)NC(=O)[C@@H]3CSSC[C@@H](C(=O)N[C@H](C(=O)N4CCC[C@H]4C(=O)N[C@@H](CCCCN)C(=O)O)[C@@H](C)O)NC(=O)[C@H](Cc4c[nH]cn4)NC(=O)[C@H](CSSC[C@H](NC(=O)[C@H](CCC(N)=O)NC(=O)[C@H](CCCNC(=N)N)NC(=O)[C@H](CO)NC1=O)C(=O)N[C@@H](CC(C)C)C(=O)N[C@@H](CCCNC(=N)N)C(=O)N1CCC[C@H]1C(=O)N3)NC(=O)[C@H](CCCCN)NC(=O)CNC(=O)[C@H](CC(N)=O)NC(=O)[C@H](CCSC)NC2=O [E16R] (H-GVIINVKCKISRQCLRPCKKAGMRFGKCMNGKCHCTPK-OH; disulfide 8-28, 14-33, 18-35) | 0.454 nM | 0.556 nM | –
9 | GVIINVKCKISRQCLEPCKKAGMRFGACMNGKCHCTPK [Ala-27 (SEQ ID No: 1423)] | – | – | IC50 ([1]; read-out: Average IC50 IFNg): 1.58 nM; IC50 ([2]; read-out: Average IC50 IL-2): 3.45 nM
10 | GVIINVKCKISRQCLAPCKKAGMRFGKCMNGKCHCTPK [Ala-16 (SEQ ID No: 1413)] | – | – | IC50 ([1]; read-out: Average IC50 IFNg): 0.101 nM; IC50 ([2]; read-out: Average IC50 IL-2): 0.101 nM
11 | CC[C@H](C)[C@@H]1NC(=O)[C@H](CCCCN)NC(=O)[C@@H](NC(=O)[C@H](CCCCN)NC(=O)[C@@H](NC(=O)[C@H](CC(N)=O)NC(=O)[C@@H](NC(=O)[C@@H](NC(=O)[C@@H](NC(=O)CN)C(C)C)[C@@H](C)CC)[C@@H](C)CC)C(C)C)CSSC[C@@H]2NC(=O)[C@H](CCCCN)NC(=O)CNC(=O)[C@H](Cc3ccccc3)NC(=O)[C@H](CCCNC(=N)N)NC(=O)[C@H](CCCNC(=N)N)NC(=O)CNC(=O)[C@H](C)NC(=O)[C@H](CCCCN)NC(=O)[C@H](CCCCN)NC(=O)[C@@H]3CSSC[C@@H](C(=O)N[C@H](C(=O)N4CCC[C@H]4C(=O)N[C@@H](CCCCN)C(=O)O)[C@@H](C)O)NC(=O)[C@H](Cc4c[nH]cn4)NC(=O)[C@H](CSSC[C@H](NC(=O)[C@H](CCC(N)=O)NC(=O)[C@H](CCCNC(=N)N)NC(=O)[C@H](CO)NC1=O)C(=O)N[C@@H](CC(C)C)C(=O)N[C@@H](CCC(=O)O)C(=O)N1CCC[C@H]1C(=O)N3)NC(=O)[C@H](CCCCN)NC(=O)CNC(=O)[C@H](CC(N)=O)NC(=O)[C@H](CCSC)NC2=O [M23R] (H-GVIINVKCKISRQCLEPCKKAGRRFGKCMNGKCHCTPK-OH; disulfide 8-28, 14-33, 18-35) | 0.148 nM | 0.182 nM | –
